The values below come from article PMC12090178, “Exploring the Potential of Homologous Recombination Protein PALB2 in Synthetic Lethal Combinations” (ACS Chemical Biology, 2025).

Where a SMILES comes first, the peptide text is derived from it. The star is where a group is joined. Cbz = O=C(OCc1ccccc1)*

One assay deals with T1, PALB2C (Homo sapiens, UniProt Q86YC2).
T1 construct: C terminal part of Palb2 (aa 835-1186); His tag (C); 3C protease site; host or cells: Hi5 insect cells (virus produced and amplified in Sf9)
T1 sequence (Q86YC2 835-1186): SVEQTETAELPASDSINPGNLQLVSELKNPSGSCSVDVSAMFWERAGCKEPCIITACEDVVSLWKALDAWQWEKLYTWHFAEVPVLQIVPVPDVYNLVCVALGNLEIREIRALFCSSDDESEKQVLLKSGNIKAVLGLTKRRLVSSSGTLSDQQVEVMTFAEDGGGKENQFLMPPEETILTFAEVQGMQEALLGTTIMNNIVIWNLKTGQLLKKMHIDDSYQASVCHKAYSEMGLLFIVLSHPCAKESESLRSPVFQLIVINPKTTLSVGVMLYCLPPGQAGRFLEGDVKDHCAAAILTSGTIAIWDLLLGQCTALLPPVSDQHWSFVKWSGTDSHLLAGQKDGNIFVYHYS
The assay is described as follows: Displacement polarization assay (competition with FLU-GG-[…]). As to conditions: alanine scan of BRCA2 21-35; dark peptide 10 μM, probe FLU-GG-[…] 10 nM; 20 min RT, 25 °C; competitive binding fit; N = 1-4; read-out: KD (alanine scan).
Protocol: To the mixture above, the dark peptide was added at a final concentration of 10 μM (1000 eq. excess). After incubation in the dark at RT for 20 min, fluorescence polarization was measured (ex: 485:20, em: 535:25, 25 °C).KD was obtained by fitting the signal to a competitive binding model described previously[52] by using the python lmfit package with the nonlinear least-squares method.
9.3 Displacement polarization assay
The displacement assay was set up similarly to the direct polarization assay. In addition to the
DMSO) was added to a final concentration of 20 μM.
μM and 10 nM for the peptide and the probe, respectively.
The resulting binding curve was fitted using the python lmfit package3 to a linearly transformed competitive KD binding model described previously4 using the non- linear least
𝑚𝑚 = 𝐾𝐾D, Probe + 𝐾𝐾D, Pep + 𝑐𝑐Probe + 𝑐𝑐Pep − 𝑐𝑐Prot
𝑛𝑛 = 𝐾𝐾D, Pep ⋅ (𝑐𝑐Probe − 𝑐𝑐Prot ) + 𝐾𝐾D, Probe ⋅ ?𝑐𝑐Pep − 𝑐𝑐Prot ? + 𝐾𝐾D, Pep ⋅ 𝐾𝐾D, Probe 𝑜𝑜 = −𝐾𝐾D, Pep ⋅ 𝐾𝐾D, Pro be ⋅ 𝑐𝑐Prot
𝜃𝜃 = cos −1 ?−2𝑚𝑚 3 + 9𝑚𝑚𝑛𝑛 − 27𝑜𝑜 ?
𝑟𝑟 = 2 ⋅ ?𝑚𝑚 2 − 3𝑛𝑛 ⋅ cos 𝜃𝜃3 − 𝑚𝑚
𝑓𝑓 = 𝑐𝑐Probe ⋅ 𝑟𝑟3 ⋅ 𝐾𝐾D, Probe + 𝑟𝑟
In the case of H-KADLGPISANWFEEL-NH2 [Peptide P35], the Kd stood at 6.7 µM. Same read-out and setting: the value for H-KADLGPIALNWFEEL-NH2 [Peptide P34] was 4.9 µM; that for H-KADLGAISLNWFEEL-NH2 [Peptide P32] was 3.6 µM; that for H-KAALGPISLNWFEEL-NH2 [Peptide P29] was 4.6 µM.

On to H-KADLGPISLNWFAEL-NH2 [Peptide P27], for which the Kd was determined as 5.1 µM.

In the case of H-KADLGPISLNWAEEL-NH2 [Peptide P26], the Kd was 10.1 µM. Still for that read-out and setting: the same measure for H-KADLGPISLNAFEEL-NH2 [Peptide P25]: 5.5 µM; for H-KADLGPISLAWFEEL-NH2 [Peptide P36]: 4 µM. On the same count and under the same terms, the same measure for H-KADLGPASLNWFEEL-NH2 [Peptide P33]: 5.3 µM.

For the molecule “H-KADLGPISLNWFEAL-NH2 [Peptide P28, H-KADLGPISLNWFEAL-NH2]”, the Kd turned out to be 7 µM.

Still in this assay, the particulars now being: truncated BRCA2 peptides; dark peptide 10 μM, probe FLU-GG-[…] 10 nM; 20 min RT, 25 °C; competitive binding fit; PALB2C source Hi5 (Figure 2B); N = 1-5; read-out: KD (other peptides).
For the molecule H-GPISLNWFEEL-NH2 [Peptide P7], the Kd came out at 82.2 µM. Turning to H-KADLGPISLNWFE-NH2 [Peptide P14], the Kd was found to be 25.2 µM. On to H-GPISLNWFE-NH2 [Peptide P12], for which the Kd amounted to 17.9 µM. The same measure, in the same setting: the same measure for H-DLGPISLNWFEEL-NH2 [Peptide P8]: 7.9 µM.

For H-KADLGPISLNWFEEL-NH2 [Peptide P9], the Kd came out at 5 µM.

The test system of another assay is PALB2-IKZF3d. Description: IMiD-induced degradation of PALB2-IKZF3d (Western blot). The format is cell-based. As to conditions: 1 μM inhibitor 6 h, then 10 μM pomalidomide 18 h. As for the experimental part:
5.1 Degradation of PALB2 and UPP rescue assays
To show PALB2 deegradation, cells were treated with pomalidomide at the indicated concentrations for 24 h. The cells were subsequently lysed and prepared for gel electrophoresis and western blotting.
To show UPP rescue, MG132 and MLN4924 were used to inhibit the ubiquitination-proteasome degradation pathway. The cells were first treated with 1 μM MG132 or 1 μM MLN4924. After 6 h, pomalidomide was added to a final concentration of 10 μM. After 18 h, the cells were collected and lysed.
To show PALB2 recovery, the cells were first treated with 10 μM pomalidomide or 10 μM iberdomide for 24 h. After that, the culture medium was removed, the cells were washed three times with fresh culture medium and then cultured with culture medium without IMiDs.
The cells were then collected an d l yse d . […]
Figure S7. A). Degradation of endogenous PALB2.
B). PALB2 de gra dation rescue expe ri ment. The cells in the degradation rescue group w ere first t reated with 1 μ M MG132 and 1 μ M M LN49 24 for 6 hou rs and then t reated with 10 μ M pomalidomide for 1 8 hours. Cell samples were collected for WB analysis. The asterisk represents a nonspecific band of PALB 2 with t his antibody. […]
Take `NS(=O)(=O)OC[C@@H]1C[C@@H](n2ccc3c(N[C@H]4CCc5ccccc54)ncnc32)C[C@@H]1O` [MLN4924]: the “rescue of pomalidomide-induced PALB2-IKZF3d degradation” value is “prevented the pomalidomide-induced degradation of PALB2-IKZF 3d”.

As for `CC(C)C[C@@H](C=O)NC(=O)[C@H](CC(C)C)NC(=O)[C@H](CC(C)C)NC(=O)OCc1ccccc1` [MG132] (Cbz-Leu-Leu-Leu-aldehyde), the “rescue of pomalidomide-induced PALB2-IKZF3d degradation” value is given as “prevented the pomalidomide-induced degradation of PALB2-IKZF 3d”.

Staying with this assay, now noted: 10 μM IMiD for 24 h, then medium removed and cells washed, knock-in cells.
As for `O=C1CC[C@H](N2Cc3c(OCc4ccc(CN5CCOCC5)cc4)cccc3C2=O)C(=O)N1` [Iber, iberdomide], the “recovery of PALB2 levels after wash out” value is “PALB2 levels recover after 24 h”.

Still in this assay, the particulars now being: homozygous IKZF3d knock-in HEK293 cells, 24 h treatment.
On to `O=C1CC[C@H](N2Cc3c(OCc4ccc(CN5CCOCC5)cc4)cccc3C2=O)C(=O)N1` [Iber, iberdomide], for which the “degradation of PALB2 in IKZF3d knock-in cells” value is “degradation could also be induced”.
